How the values were obtained:
[1] = Buffer solubility by HPLC; settings: maximum measurable 90 micromolar
Description: One microliter (μL) of the stock solution was then added to 110 μL of aqueous buffer solution placed in an HPLC (high performance liquid chromatography) vial and mixed by inverting a number of times. The samples were allowed to stand for 30 minutes and then centrifuged for 30 minutes. The centrifugation is required to deposit suspended material that could interfere with the analysis to the side of the vial. The solutions were then analyzed by HPLC by sampling the solution without touching the vial bottom or sides. Shown below are the measured quantities remaining in solution in the various buffers.

[2] = system: bull sperm; assay: Overnight low temperature staining of bull sperm with Hoechst 33342, separation into X- and Y-sperm by flow cytometry; type: cell-based; settings: citrate buffer pH 6.9
Description: (§1) Bull sperm in citrate buffer at pH 6.9-7.0 is sent from collection facility to sorter facility by same-day delivery at 18° C. Upon receipt the sperm is divided into three portions and stored and stained overnight with Hoechst 33342 dye at 18° C., 20° C., or 22° C. (all in citrate buffer at pH 6.9).

[3] = system: bull sperm; assay: Sperm motility/viability after overnight incubation with HO dye; type: cell-based; settings: overnight incubation at 18, 20 or 22° C., 0 hours
Description: as §1

[4] = system: bull sperm; assay: Staining of bull sperm with Hoechst dye at 24° C. in citrate or HEPES buffer, separation by flow cytometry; type: cell-based
Description: Bull sperm are collected at a collection facility, extended in citrate buffer pH 6.9 and sent at 18° C. by overnight express mail to a sorting facility. The sample is divided into two portions, centrifuged to separate sperm from supernatant, and each portion resuspended respectively in citrate buffer and HEPES buffer, both at pH 7.4. 0.1% BSA is present in the HEPES buffer.

[5] = system: bull sperm; assay: Staining of bull sperm with Hoechst 33342 in TEST buffer, split index on Coulter Epics flow cytometer; type: cell-based
Description: Bull semen was collected from a sexually mature bull using an artificial vagina and the sample was diluted with citrate buffer (pH 7.0) at 1 part semen: 3 parts buffer. The sample was transferred to the flow cytometry laboratory at 18° C. The concentration of the sample is determined using a hemocytometer and the cells were diluted with an appropriate amount of TEST buffer (pH 7.35) to obtain 100 million sperm per mL. Ten microliters of a stock concentration (5 mg/ml in dH2O) of Hoechst 33342 was added to the sample of sperm and the cells were incubated at 25° C. for up to 4 hours. A second population of cells was handled in like manner but was incubated at 35° C. for 1 hour to serve as a positive control. A third population of cells was handled in like manner but the buffer pH is 7.2 instead of pH 7.35 to determine if buffer pH influences uptake of Hoechst 33342. At one-hour intervals for up to 4 hours, 200 μL micro aliquots were removed from the samples and evaluated using a Coulter Epics flow cytometer. The split index information was collected for each sample per treatment group. [table]

CCOc1ccc(-c2nc3ccc(-c4nc5ccc(N6CCN(C)CC6)cc5[nH]4)cc3[nH]2)cc1 [Hoechst 33342]
quantity remaining in solution (solubility) ([1]; HEPES Buffer pH 6.85): 79 µM
quantity remaining in solution (solubility) ([1]; HEPES Buffer pH 7.02): 73 µM
quantity remaining in solution (solubility) ([1]; HEPES Buffer pH 7.23): 27 µM
quantity remaining in solution (solubility) ([1]; HEPES Buffer pH 7.36): 23 µM
quantity remaining in solution (solubility) ([1]; HEPES Buffer pH 7.52): 36 µM
quantity remaining in solution (solubility) ([1]; TES Buffer pH 6.85): 79 µM
quantity remaining in solution (solubility) ([1]; TES Buffer pH 6.98): 80 µM
quantity remaining in solution (solubility) ([1]; TES Buffer pH 7.19): 78 µM
quantity remaining in solution (solubility) ([1]; TES Buffer pH 7.34): 75 µM
quantity remaining in solution (solubility) ([1]; TES Buffer pH 7.54): 57 µM
quantity remaining in solution (solubility) ([1]; Tris Buffer pH 6.76): 34 µM
quantity remaining in solution (solubility) ([1]; Tris Buffer pH 6.95): 42 µM
quantity remaining in solution (solubility) ([1]; Tris Buffer pH 7.15): 49 µM
quantity remaining in solution (solubility) ([1]; Tris Buffer pH 7.36): 22 µM
quantity remaining in solution (solubility) ([1]; Tris Buffer pH 7.53): 15 µM
separation of Y- and X-bearing sperm by flow cytometry ([2]; stained 18° C. o/n, 0 hr incubation @ RT): no separation
separation of Y- and X-bearing sperm by flow cytometry ([2]; stained 18° C. o/n, 1.5 hr incubation @ RT): no separation
separation of Y- and X-bearing sperm by flow cytometry ([2]; stained 18° C. o/n, 5.0 hr incubation @ RT): no separation
separation of Y- and X-bearing sperm by flow cytometry ([2]; stained 20° C. o/n, 0 hr incubation @ RT): no separation
separation of Y- and X-bearing sperm by flow cytometry ([2]; stained 20° C. o/n, 1.5 hr incubation @ RT): no separation
separation of Y- and X-bearing sperm by flow cytometry ([2]; stained 20° C. o/n, 5.0 hr incubation @ RT): no separation
separation of Y- and X-bearing sperm by flow cytometry ([2]; stained 22° C. o/n, 0 hr incubation @ RT): no separation
effect of prolonged exposure to dye medium on sperm viability (motility) [3]: does not compromise sperm viability
Sort results after 2.5 h incubation at room temperature (24° C.) ([4]; Sperm in HEPES buffer, pH 7.4, 0.1% BSA): Sperm were separated into X and Y
Sort results after 2.5 h incubation at room temperature (24° C.) ([4]; Sperm in NaCitrate buffer, pH 7.4): No separation into X and Y
1 h Split index ([5]; 25° C. in TEST pH 7.2): 0%
2 h split index ([5]; 25° C. in TEST pH 7.2): 0%
3 h split index ([5]; 25° C. in TEST pH 7.2): 0%
4 h split index ([5]; 25° C. in TEST pH 7.2): 0%
1 h Split index ([5]; 25° C. in TEST pH 7.35): 0%
2 h split index ([5]; 25° C. in TEST pH 7.35): 0%
3 h split index ([5]; 25° C. in TEST pH 7.35): 10%
4 h split index ([5]; 25° C. in TEST pH 7.35): 30%
1 h Split index ([5]; 35° C. control (positive control), 1 hour): 30%

— patent publication US20050064383A1, “Methods and apparatus for producing gender enriched sperm” (priority 2000, published 2005)
